Reference: ChEMBL document CHEMBL1138953 (Bioorg Med Chem Lett, 2006)

Key:
Cannabinoid receptor 2 = Cannabinoid receptor 2 (Homo sapiens, UniProt P34972); assay: Displacement of [3H]CP-55-940 from human recombinant CB2 receptor in COS cells; assay type: cell-based
Cannabinoid receptor 1 = Cannabinoid receptor 1 (Homo sapiens, UniProt P21554); assay: Displacement of [3H]CP-55-940 from human recombinant CB1 receptor in COS cells; assay type: cell-based
Sequence of Cannabinoid receptor 1 (P21554 whole entry): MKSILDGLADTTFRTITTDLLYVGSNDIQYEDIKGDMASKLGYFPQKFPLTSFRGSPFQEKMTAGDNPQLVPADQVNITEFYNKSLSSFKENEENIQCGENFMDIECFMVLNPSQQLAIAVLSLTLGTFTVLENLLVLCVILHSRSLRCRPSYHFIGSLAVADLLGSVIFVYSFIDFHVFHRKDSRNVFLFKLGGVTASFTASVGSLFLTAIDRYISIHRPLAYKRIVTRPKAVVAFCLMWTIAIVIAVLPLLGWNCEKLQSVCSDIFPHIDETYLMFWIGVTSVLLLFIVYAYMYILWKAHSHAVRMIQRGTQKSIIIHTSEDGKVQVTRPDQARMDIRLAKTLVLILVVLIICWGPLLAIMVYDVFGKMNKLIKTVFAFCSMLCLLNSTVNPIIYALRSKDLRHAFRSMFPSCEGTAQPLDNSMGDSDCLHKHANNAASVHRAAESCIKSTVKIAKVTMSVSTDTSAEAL

Sequence of Cannabinoid receptor 2 (P34972 whole entry): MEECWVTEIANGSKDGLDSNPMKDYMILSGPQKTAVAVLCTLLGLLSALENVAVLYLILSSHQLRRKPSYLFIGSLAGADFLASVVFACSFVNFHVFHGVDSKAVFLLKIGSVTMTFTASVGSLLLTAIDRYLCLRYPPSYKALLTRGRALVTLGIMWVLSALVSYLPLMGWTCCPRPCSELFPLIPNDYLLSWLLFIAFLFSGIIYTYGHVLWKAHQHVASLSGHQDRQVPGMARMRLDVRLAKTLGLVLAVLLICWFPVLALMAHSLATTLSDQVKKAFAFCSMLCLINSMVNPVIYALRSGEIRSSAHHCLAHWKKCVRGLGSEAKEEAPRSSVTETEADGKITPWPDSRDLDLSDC

How did the Ki (Cannabinoid receptor 2) turn out when `C[C@H](CO)NC(=O)CCC/C=C\C/C=C\C/C=C\C/C=C\CCOC(=O)c1cc(I)ccc1N=[N+]=[N-]` was run?
The Ki was 220 nM.

And the Ki (Cannabinoid receptor 1)?
The Ki was 570 nM.
